From patent US11352408B2, “Antitumor peptide having PD-1 signal sequence and utilization thereof” (TOAGOSEI CO.,LTD., priority 2017, dated 2022)
Where two headings read alike, the source gives them in different places. Where a SMILES comes first, the peptide text is derived from it.

Legend:
[1] = in vitro; type: cell-based; settings: human
Method: (3) cultured normal human mammary epithelial cell line (MCF-12F):
DMEM/F12 medium (product from Wako Pure Chemical Industries, Ltd.) containing 20 ng/mL recombinant EGF, 10 μg/mL insulin, 0.5 μg/mL hydrocortisone and 10% FBS.
(§1) The cell viability (%) was determined as indicated hereinbelow.

[2] = system: human non small cell lung cancer cell line (NCI-H2444); test: Antitumor activity evaluation, cell viability by Cell Counting Kit-8 (WST-8); type: cell-based
Method: as §1

[3] = system: human non small cell lung cancer cell line (HCC827); test: as above; type: cell-based
Method: as §1

[4] = system: human breast adenocarcinoma cell line (MDA-MB-231); type: cell-based; settings: 48 h
Method: (§2) Some of the sample peptides synthesized in Test Example 1 were evaluated for antitumor activity on several types of cultured tumor cells.
(§3) Specifically, test tumor cells used were currently commercially available human non small cell lung cancer cell line (NCI-H2444), human non small cell lung cancer cell line (HCC827), human alveolar basal epithelial adenocarcinoma cell line (A549), human small cell lung cancer cell line (NCI-H446), human melanoma cell line (A2058) and human breast adenocarcinoma cell line (MDA-MB-231). As a comparison, a commercially available cultured normal human mammary epithelial cell line (MCF-12F) was used.
(§4) (2) human melanoma cell line (A2058) and human breast adenocarcinoma cell line (MDA-MB-231):
(§5) DMEM medium (product from Wako Pure Chemical Industries, Ltd.) containing 2 mM L-glutamine, 0.1 mM non-essential amino acids, 50 units/mL penicillin, 50 μg/mL streptomycin and 10% FBS; and
(§6) The above six cell lines were cultured in each of the media indicated above and the number of cells was adjusted to be approximately 5×10^3 per well in a 96-well plate. The amount of the medium was 100 μL per well.
(§7) The 96-well plate was placed in a CO2 incubator and pre-incubated under conditions of 37° C. and 5% CO2 for approximately one day (21 hours to 24 hours).
(§8) Thereafter, peptide-containing test media were respectively prepared for each concentration so that the concentration of any of the sample peptides to be evaluated was either 12.5 μM or 25 μM, and were supplied to wells (namely, wells after pre-incubation above) in which cells to be evaluated were cultured at 90 μL per well. The 96-well plate was placed back in the CO2 incubator and incubated under conditions of 37° C. and 5% CO2 for 48 hours.
(§9) The number (n) of test wells per each peptide concentration in the test section to which peptides were added was 3. Therefore, the values indicated in the result section in the table hereinbelow are averages of results obtained from 3 test wells. The cell viability (%) was determined as indicated hereinbelow.
(§10) After a 48-hour incubation, the medium in the wells was replaced by 100 μL fresh medium without peptide, and 10 μL of a reagent for cell proliferation measurement “Cell Counting Kit-8” (product from Dojindo Laboratories) containing “water-soluble tetrazolium salt (WST-8)” as a chromogenic reagent was added to each well. The 96-well plate was then placed back in the CO2 incubator and incubated under conditions of 37° C. and 5% CO2 for 1.5 hours to 2 hours.
(§11) After completion of the incubation, the cell culture medium to which the reagent was added was recovered and the cell viability (%) was evaluated by a colorimetric method in which the absorbance at a wavelength of 450 nm (the value corrected with the absorbance at a wavelength 650 nm: A450-A650) due to reduction of the tetrazolium salt was measured. Specifically, the cell viability (%) of each test cell line was calculated from the measured absorbance as a relative value to the measured value (measured absorbance) in the comparative test section in which the incubation over 48 hours as above was carried out only with a medium without peptide, that was regarded as 100% of the cell viability.

[5] = system: human melanoma cell line (A2058); type: cell-based; settings: 48 h
Method: as §2, §3, §4, §5, §6, §7, §8, §9, §10, §11

[6] = system: human small cell lung cancer cell line (NCI-H446); type: cell-based; settings: 48 h
Method: as §1

[7] = system: tumor cells tested in the present Test Example; test: Evaluation test on antitumor activities of synthetic peptides, overall finding; type: cell-based, human; settings: compared to comparative samples 3 to 5
Method: as §1

[8] = system: human alveolar basal epithelial adenocarcinoma cell line (A549); settings: 48 hours, relative to medium without peptide = 100%
Method: as §2, §3
The above six cell lines were cultured in each of the media indicated above and the number of cells was adjusted to be approximately 5×10^3 per well in a 96-well plate. The amount of the medium was 100 μL per well. […]
Thereafter, peptide-containing test media were respectively prepared for each concentration so that the concentration of any of the sample peptides to be evaluated was either 12.5 μM or 25 μM, and were supplied to wells (namely, wells after pre-incubation above) in which cells to be evaluated were cultured at 90 μL per well. […]
The number (n) of test wells per each peptide concentration in the test section to which peptides were added was 3. […] The cell viability (%) was determined as indicated hereinbelow. […]

| SMILES | viability at 48 h, 12.5 µM [1] [%] | viability at 48 h, 25 µM [1] [%] | Cell viability (%) ([2]; human, 48 h, 12.5 µM) | Cell viability (%) ([2]; human, 48 h, 25 µM) | Cell viability (%) ([3]; human, 48 h, 12.5 µM) | Cell viability (%) ([3]; human, 48 h, 25 µM) | Cell viability (%) ([4]; 12.5 µM) | Cell viability (%) ([4]; 25 µM) | Cell viability (%) ([5]; 12.5 µM) | Cell viability (%) ([5]; 25 µM) | Cell viability (%) ([6]; 12.5 µM) | Cell viability (%) ([6]; 25 µM) | antitumor activity (inhibitory activity of proliferation of tumor cells) [7] | Cell viability (%) ([8]; test peptide concentration 12.5 μM) | Cell viability (%) ([8]; test peptide concentration 25.0 μM) | Cell viability (%) ([2]; NCI-H2444, test peptide concentration 12.5 μM, 48 hours, relative to medium without peptide = 100%) | Cell viability (%) ([2]; NCI-H2444, test peptide concentration 25.0 μM, 48 hours, relative to medium without peptide = 100%) | Cell viability (%) ([3]; HCC827, test peptide concentration 12.5 μM, 48 hours, relative to medium without peptide = 100%) | Cell viability (%) ([3]; HCC827, test peptide concentration 25.0 μM, 48 hours, relative to medium without peptide = 100%) |
| --- | --- | --- | --- | --- | --- | --- | --- | --- | --- | --- | --- | --- | --- | --- | --- | --- | --- | --- | --- |
| CC[C@H](C)[C@H](NC(=O)[C@H](CCC(N)=O)NC(=O)[C@@H](N)CCSC)C(=O)N1CCC[C@H]1C(=O)N[C@@H](CCC(N)=O)C(=O)N[C@@H](C)C(=O)N1CCC[C@H]1C(=O)N[C@@H](Cc1c[nH]c2ccccc12)C(=O)N1CCC[C@H]1C(=O)N[C@H](C(=O)N[C@H](C(=O)N[C@@H](Cc1c[nH]c2ccccc12)C(=O)N[C@@H](C)C(=O)N[C@H](C(=O)N[C@@H](CC(C)C)C(=O)N[C@@H](CCC(N)=O)C(=O)N[C@@H](CC(C)C)C(=O)NCC(=O)N[C@@H](Cc1c[nH]c2ccccc12)C(=O)N[C@@H](CCCNC(=N)N)C(=O)N[C@@H](CCCCN)C(=O)N[C@@H](CCCCN)C(=O)N[C@@H](CCCNC(=N)N)C(=O)N[C@H](C(=O)N[C@@H](CC(C)C)C(=O)N[C@@H](CCCNC(=N)N)C(=O)N[C@@H](CCCCN)C(=O)N[C@@H](CC(N)=O)C(=O)N[C@@H](CC(=O)O)C(=O)N[C@@H](CCCNC(=N)N)C(=O)N[C@@H](CCCCN)C(=O)N[C@@H](CCCCN)C(=O)N[C@@H](CCCNC(=N)N)C(N)=O)[C@@H](C)O)C(C)C)C(C)C)C(C)C [Sample 1] (H-MQIPQAPWPVVWAVLQLGWRKKRTLRKNDRKKR-NH2; N-terminus assumed) | 97.4 | 62.3 | 59.6 | 6.8 | 49.8 | 11.8 | 63.1 | 9.9 | 50.4 | 6.7 | 2.5 | 0.5 | excellent antitumor activity |  |  |  |  |  |  |
| CC(C)C[C@H](NC(=O)[C@@H](NC(=O)[C@H](CCCNC(=N)N)NC(=O)[C@H](CCCCN)NC(=O)[C@@H](N)CCCCN)[C@@H](C)O)C(=O)N[C@@H](CCCNC(=N)N)C(=O)N[C@@H](CCCCN)C(=O)N[C@@H](CC(N)=O)C(=O)N[C@@H](CC(=O)O)C(=O)N[C@@H](CCCNC(=N)N)C(=O)N[C@@H](CCCCN)C(=O)N[C@@H](CCCCN)C(=O)N[C@@H](CCCNC(=N)N)C(N)=O [Sample 5, KKRTLRKNDRKKR-CONH2] (H-KKRTLRKNDRKKR-NH2; N-terminus assumed) |  |  |  |  | 106.7 | 106.5 |  |  |  |  |  |  |  |  |  |  |  |  |  |
| CC[C@H](C)[C@H](NC(=O)[C@H](CCC(N)=O)NC(=O)[C@@H](N)CCSC)C(=O)N1CCC[C@H]1C(=O)N[C@@H](CCC(N)=O)C(=O)N[C@@H](C)C(=O)N1CCC[C@H]1C(=O)N[C@@H](Cc1c[nH]c2ccccc12)C(=O)N1CCC[C@H]1C(=O)N[C@H](C(=O)N[C@H](C(=O)N[C@@H](Cc1c[nH]c2ccccc12)C(=O)N[C@@H](C)C(=O)N[C@H](C(=O)N[C@@H](CC(C)C)C(=O)N[C@@H](CCC(N)=O)C(=O)N[C@@H](CC(C)C)C(=O)NCC(=O)N[C@@H](Cc1c[nH]c2ccccc12)C(=O)N[C@@H](CCCNC(=N)N)C(=O)N[C@@H](CCCNC(=N)N)C(=O)N[C@@H](CCCCN)C(=O)N[C@@H](CCCCN)C(=O)N[C@@H](CCCNC(=N)N)C(=O)N[C@@H](CCCNC(=N)N)C(=O)N[C@@H](CCC(N)=O)C(=O)N[C@@H](CCCNC(=N)N)C(=O)N[C@@H](CCCNC(=N)N)C(=O)N[C@@H](CCCNC(=N)N)C(N)=O)C(C)C)C(C)C)C(C)C [Sample 2] (H-MQIPQAPWPVVWAVLQLGWRRKKRRQRRR-NH2; N-terminus assumed) |  |  |  |  |  |  |  |  |  |  |  |  | excellent antitumor activity | 52.4 | 9.1 | 50.4 | 3.6 | 62.9 | 4.9 |
| CC[C@H](C)[C@H](NC(=O)[C@H](CC(C)C)NC(=O)[C@H](CC(C)C)NC(=O)[C@H](CCSC)NC(=O)[C@H](CCC(N)=O)NC(=O)[C@H](CCC(N)=O)NC(=O)[C@H](CCC(N)=O)NC(=O)[C@@H](NC(=O)[C@@H](NC(=O)[C@@H](NC(=O)[C@@H]1CCCN1C(=O)[C@@H]1CCCN1C(=O)[C@H](Cc1c[nH]c2ccccc12)NC(=O)[C@H](Cc1c[nH]c2ccccc12)NC(=O)[C@H](Cc1c[nH]c2ccccc12)NC(=O)[C@@H]1CCCN1)C(C)C)C(C)C)C(C)C)C(=O)NCC(=O)N[C@@H](C)C(=O)N[C@@H](C)C(=O)N[C@@H](CCCNC(=N)N)C(=O)N[C@@H](CCCCN)C(=O)N[C@@H](CCCCN)C(=O)N[C@@H](CCCNC(=N)N)C(=O)N[C@H](C(=O)N[C@@H](CC(C)C)C(=O)N[C@@H](CCCNC(=N)N)C(=O)N[C@@H](CCCCN)C(=O)N[C@@H](CC(N)=O)C(=O)N[C@@H](CC(=O)O)C(=O)N[C@@H](CCCNC(=N)N)C(=O)N[C@@H](CCCCN)C(=O)N[C@@H](CCCCN)C(=O)N[C@@H](CCCNC(=N)N)C(N)=O)[C@@H](C)O [Sample 4] (H-PWWWPPVVVQQQMLLIGAARKKRTLRKNDRKKR-NH2; N-terminus assumed) |  |  |  |  | 110.9 | 102.6 |  |  |  |  |  |  |  |  |  |  |  |  |  |
| CC[C@H](C)[C@H](NC(=O)[C@H](CCCNC(=N)N)NC(=O)[C@@H](N)CCSC)C(=O)N[C@@H](Cc1ccccc1)C(=O)N[C@@H](C)C(=O)N[C@H](C(=O)N[C@@H](Cc1ccccc1)C(=O)N[C@H](C(=O)N[C@@H](Cc1ccccc1)C(=O)N[C@@H](CCSC)C(=O)N[C@H](C(=O)N[C@@H](Cc1ccc(O)cc1)C(=O)N[C@@H](Cc1c[nH]c2ccccc12)C(=O)N[C@@H](Cc1c[nH]cn1)C(=O)N[C@@H](CC(C)C)C(=O)N[C@@H](CC(C)C)C(=O)N[C@@H](CC(N)=O)C(=O)N[C@@H](C)C(=O)N[C@@H](CCCCN)C(=O)N[C@@H](CCCCN)C(=O)N[C@@H](CCCNC(=N)N)C(=O)N[C@H](C(=O)N[C@@H](CC(C)C)C(=O)N[C@@H](CCCNC(=N)N)C(=O)N[C@@H](CCCCN)C(=O)N[C@@H](CC(N)=O)C(=O)N[C@@H](CC(=O)O)C(=O)N[C@@H](CCCNC(=N)N)C(=O)N[C@@H](CCCCN)C(=O)N[C@@H](CCCCN)C(=O)N[C@@H](CCCNC(=N)N)C(N)=O)[C@@H](C)O)[C@@H](C)O)[C@@H](C)CC)C(C)C [Sample 3, reference compound] (H-MRIFAVFIFMTYWHLLNAKKRTLRKNDRKKR-NH2; N-terminus assumed) | 87.3 | 81.7 | 106.3 | 87.7 | 105.4 | 120.6 | 89.3 | 83.7 | 100.9 | 87.5 | 67.9 | 56.7 |  |  |  |  |  |  |  |
